Source: US9872873B2, “Process for preparing stable pharmaceutical compositions of compounds susceptible to hydrolysis” (Fresenius Kabi Oncology Limited, priority 2012, dated 2018)

Experiments:
[1] = Stability profile of Decitabine pre-lyophilized bulk solution at 25° C. in water; type: physicochemical
Experimental: The manufacture of a freeze dried product necessitates that the product is usually first manufactured as a solution, filtered to sterilize, aseptically filled, and finally lyophilized to remove the solvents. All of these unit operations require that the product be held in the solution state for a defined period of time, at least for 4 hours. A batch of Decitabine bulk solution was prepared by dissolving the drug (5 mg/mL) and buffer (Potassium dihydrogen phosphate 6.8 mg/mL, sodium hydroxide 1.16 mg/mL) in water and at room temperature.

[2] = Stability profile of Decitabine pre-lyophilized bulk solution at −1° C. in water; type: physicochemical
[3] = Freezing point of bulk solution of Decitabine using various solvents and buffers; type: physicochemical
Text: The advantages of using these non-aqueous solvent systems include: increased drug wetting or solubility, increased sublimation rates, increased pre-dried bulk solution or dried product stability, decreased reconstitution time, and enhancement of sterility assurance of the pre-dried bulk solution. A pre-requisite for such a solvent to be utilized efficiently for depression of freezing point of water would be to have satisfactory drug solubility in solvent system. […] Various solvents were evaluated for intended purpose e.g. Dimethylsulfoxide (1-30%), Ethanol (1-30%), Tertiary-butanol (1-30%), and their combinations were used in the range of 1-30% and thus were evaluated for their effect in decreasing the freezing point of bulk solution as summarized in Table VII. Although Ethanol decreased the freezing point of the drug solution and ensured drug solubility at low temperature, it was not suitable as a solvent for lyophilization as lyophilized cake could not be formed using this solvent system. Dimethyl sulphoxide is not suitable solvent for Lyophilization as it is difficult to remove during lyophilization.

[4] = Solution stability of Decitabine bulk solution in Water:Acetonitrile 80:20% v/v at −5 ± 2° C.; type: physicochemical
[5] = cited from earlier work
[6] = Initial (5 minutes after drug dissolution)

Related Substances: 5-Azacytosine ([1]; 2 h): 0.05%
Related Substances: H-unk (Highest Unknown Impurity) ([1]; 2 h): 12.42%
Related Substances: Six member Decitabine ([1]; 2 h): 0.34%
Related Substances: Total ([1]; 2 h): 25.44%
Related Substances: α-Decitabine ([1]; 2 h): 0.00%
Related Substances: 5-Azacytosine ([1]; 4 h): 0.05%
Related Substances: H-unk (Highest Unknown Impurity) ([1]; 4 h): 14.14%
Related Substances: Six member Decitabine ([1]; 4 h): 0.81%
Related Substances: Total ([1]; 4 h): 31.46%
Related Substances: α-Decitabine ([1]; 4 h): 0.00%
Related Substances: 5-Azacytosine [1, 6]: 0.00%
Related Substances: H-unk (Highest Unknown Impurity) [1, 6]: 10.89%
Related Substances: Six member Decitabine [1, 6]: 0.05%
Related Substances: Total [1, 6]: 12.12%
Related Substances: α-Decitabine [1, 6]: 0.00%
Related Substances: 5-Azacytosine ([2]; 1 hr): 0.03%
Related Substances: H-unk (Highest Unknown Impurity) ([2]; 1 hr): 0.05%
Related Substances: SP1 ([2]; 1 hr): 0.03%
Related Substances: SP2 ([2]; 1 hr): 0.01%
Related Substances: SP3 ([2]; 1 hr): 0.06%
Related Substances: SP4 ([2]; 1 hr): 0.85%
Related Substances: SP6 ([2]; 1 hr): 0.07%
Related Substances: Total ([2]; 1 hr): 1.25%
Related Substances: α-Decitabine ([2]; 1 hr): 0.02%
Related Substances: 5-Azacytosine ([2]; 2 hr): 0.04%
Related Substances: H-unk (Highest Unknown Impurity) ([2]; 2 hr): 0.05%
Related Substances: SP1 ([2]; 2 hr): 0.03%
Related Substances: SP2 ([2]; 2 hr): 0.02%
Related Substances: SP3 ([2]; 2 hr): 0.05%
Related Substances: SP4 ([2]; 2 hr): 1.50%
Related Substances: SP6 ([2]; 2 hr): 0.22%
Related Substances: Total ([2]; 2 hr): 2.06%
Related Substances: α-Decitabine ([2]; 2 hr): 0.02%
Related Substances: 5-Azacytosine ([2]; 3 hr): 0.03%
Related Substances: H-unk (Highest Unknown Impurity) ([2]; 3 hr): 0.05%
Related Substances: SP1 ([2]; 3 hr): 0.03%
Related Substances: SP2 ([2]; 3 hr): 0.02%
Related Substances: SP3 ([2]; 3 hr): 0.05%
Related Substances: SP4 ([2]; 3 hr): 2.13%
Related Substances: SP6 ([2]; 3 hr): 0.21%
Related Substances: Total ([2]; 3 hr): 2.68%
Related Substances: α-Decitabine ([2]; 3 hr): 0.02%
Related Substances: 5-Azacytosine ([2]; 4 hr): 0.03%
Related Substances: H-unk (Highest Unknown Impurity) ([2]; 4 hr): 0.05%
Related Substances: SP1 ([2]; 4 hr): 0.03%
Related Substances: SP2 ([2]; 4 hr): 0.04%
Related Substances: SP3 ([2]; 4 hr): 0.05%
Related Substances: SP4 ([2]; 4 hr): 1.71%
Related Substances: SP6 ([2]; 4 hr): 0.95%
Related Substances: Total ([2]; 4 hr): 3.07%
Related Substances: α-Decitabine ([2]; 4 hr): 0.01%
Related Substances: 5-Azacytosine ([2]; Initial): 0.03%
Related Substances: H-unk (Highest Unknown Impurity) ([2]; Initial): 0.05%
Related Substances: SP1 ([2]; Initial): 0.03%
Related Substances: SP2 ([2]; Initial): 0.01%
Related Substances: SP3 ([2]; Initial): 0.06%
Related Substances: SP4 ([2]; Initial): 0.35%
Related Substances: SP6 ([2]; Initial): 0.04%
Related Substances: Total ([2]; Initial): 0.70%
Freezing Point of bulk solution ([3]; 5% DMSO + 10% Ethanol + 20% Tertiary-butanol + buffer): −8 to −10 °C
Freezing Point of bulk solution ([3]; 5% DMSO +10% Ethanol + buffer): −5 °C
Freezing Point of bulk solution ([3]; 5% DMSO + 15% Ethanol + buffer): −6 to −9 °C
Freezing Point of bulk solution ([3]; Acetonitrile 5%): −2 to −3 °C
Freezing Point of bulk solution ([3]; Acetonitrile 10%): −3 to −4 °C
Freezing Point of bulk solution ([3]; Acetonitrile 15%): −4 to −6 °C
Freezing Point of bulk solution ([3]; Acetonitrile 20%): −8 °C
Freezing Point of bulk solution ([3]; DMSO 1%): −0.5 °C
Freezing Point of bulk solution ([3]; DMSO 2%): −0.8 °C
Freezing Point of bulk solution ([3]; DMSO 5%): −1.6 °C
Freezing Point of bulk solution ([3]; DMSO 10%): −3.0 °C
Freezing Point of bulk solution ([3]; DMSO 15%): −5.5 °C
Freezing Point of bulk solution ([3]; DMSO 20%): −13.9 °C
Freezing Point of bulk solution ([3]; DMSO 30%): −16.0 °C
Freezing Point of bulk solution ([3]; Ethanol 1%): −0.5 °C
Freezing Point of bulk solution ([3]; Ethanol 2%): −0.7 °C
Freezing Point of bulk solution ([3]; Ethanol 5%): −2.0 °C
Freezing Point of bulk solution ([3]; Ethanol 10%): −2.5 °C
Freezing Point of bulk solution ([3]; Ethanol 15%): −6.1 °C
Freezing Point of bulk solution ([3]; Ethanol 20%): −13.8 °C
Freezing Point of bulk solution ([3]; Ethanol 30%): −14.3 °C
Freezing Point of bulk solution ([3]; Tertiary-butanol 1%): −0.1 °C
Freezing Point of bulk solution ([3]; Tertiary-butanol 2%): −1.0 °C
Freezing Point of bulk solution ([3]; Tertiary-butanol 5%): −2.5 °C
Freezing Point of bulk solution ([3]; Tertiary-butanol 10%): −4.3 °C
Freezing Point of bulk solution ([3]; Tertiary-butanol 15%): −6.0 °C
Freezing Point of bulk solution ([3]; Tertiary-butanol 20%): −9.3 °C
Freezing Point of bulk solution ([3]; Tertiary-butanol 30%): −12.9 °C
Freezing Point of bulk solution ([3]; n-butanol): Restricted Miscibility
Related Substances: 5-Azacytosine ([4]; 4 hrs): 0.02%
Related Substances: H-unk (Highest Unknown Impurity) ([4]; 4 hrs): 0.03%
Related Substances: SP4 ([4]; 4 hrs): 0.28%
Related Substances: SP6 ([4]; 4 hrs): 0.29%
Related Substances: Total ([4]; 4 hrs): 0.67%
Related Substances: 5-Azacytosine ([4]; Initial): 0.01%
Related Substances: H-unk (Highest Unknown Impurity) ([4]; Initial): 0.03%
Related Substances: SP4 ([4]; Initial): 0.04%
Related Substances: SP6 ([4]; Initial): 0.05%
Related Substances: Total ([4]; Initial): 0.17%
Compound: Nc1ncn([C@H]2C[C@H](O)[C@@H](CO)O2)c(=O)n1 [Decitabine, 5-aza-2′ deoxycytidine]
Maximum storage time of diluted solution until administration ([5]; prepared with cold (2° C.-8° C.) infusion fluids, stored at 2° C.-8° C.): ≤ 7 h
Time of use after reconstitution without cold infusion fluids ([5]; reconstituted with Sterile Water for Injection): ≤ 15 min
